In ChEMBL document CHEMBL3526033, “Identification of human liver cytochrome P450 enzymes involved in the metabolism of SCH 530348 (Vorapaxar), a potent oral thrombin protease-activated receptor 1 antagonist” (Drug Metab Dispos, 2011) one finds Drug metabolism and Compound recovery data, which are given here for 1 compound.

One series deals with T1, Cytochrome P450 4F3 (Homo sapiens, UniProt Q08477).
T1 sequence (Q08477 whole entry): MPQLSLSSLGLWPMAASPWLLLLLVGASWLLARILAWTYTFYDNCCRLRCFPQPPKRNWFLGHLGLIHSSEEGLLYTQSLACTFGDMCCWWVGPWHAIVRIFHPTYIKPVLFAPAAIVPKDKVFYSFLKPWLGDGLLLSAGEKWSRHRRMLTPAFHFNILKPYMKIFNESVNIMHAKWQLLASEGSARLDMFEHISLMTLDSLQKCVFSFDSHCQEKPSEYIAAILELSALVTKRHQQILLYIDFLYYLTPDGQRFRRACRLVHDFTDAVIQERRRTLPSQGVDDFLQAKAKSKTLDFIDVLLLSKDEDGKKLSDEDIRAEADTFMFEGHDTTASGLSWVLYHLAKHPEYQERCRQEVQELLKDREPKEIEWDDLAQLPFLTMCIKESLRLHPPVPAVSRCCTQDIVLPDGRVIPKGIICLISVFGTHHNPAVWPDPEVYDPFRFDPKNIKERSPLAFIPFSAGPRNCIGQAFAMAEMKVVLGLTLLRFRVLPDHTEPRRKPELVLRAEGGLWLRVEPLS
In words: Drug level assessed as human recombinant CYP4F3A-mediated drug metabolism treated with 25 uM [14C]vorapaxar after 120 mins by LC-MS/MS analysis in presence of NADPH. The class given is ADME. To be noted: recombinant enzyme, 2 h.

Series [1] has as its target T2, Cytochrome P450 3A4 (Homo sapiens, UniProt P08684). Nature of the series: Activity of human recombinant CYP3A4 assessed as enzyme-mediated drug metabolism treated with 10 uM [14C]vorapaxar after 120 mins by LC-MS/MS analysis in presence of NADPH. The class given is ADME. The conditions noted are these: 2 h.
For series [2], the target named is T2, Cytochrome P450 3A4. In words: Drug level in human liver microsomes assessed as CYP3A4-mediated drug metabolism at 25 uM after 120 mins by LC-MS/MS analysis. The class given is ADME. To be noted: 2 h. For orientation: Microsomes from liver hold many membrane-bound enzymes, among them those of drug oxidation.
Series [3] has as its system Liver microsome. Nature of the series: Drug level in human liver microsomes treated with 10 to 25 uM vorapaxar after 120 mins by LC-MS/MS analysis in presence of quinidine. The class given is ADME. To be noted: 2 h.
Series [4] deals with T3, Cytochrome P450 2C19 (Homo sapiens, UniProt P33261). Nature of the series: Activity of human recombinant CYP2C19 assessed as enzyme-mediated drug metabolism treated with 10 uM [14C]vorapaxar after 120 mins by LC-MS/MS analysis in presence of NADPH. Format: ADME. To be noted: 2 h.
The target in series [5] is T4, Cytochrome P450 1A1 (Homo sapiens, UniProt P04798).
T4 sequence (P04798 whole entry): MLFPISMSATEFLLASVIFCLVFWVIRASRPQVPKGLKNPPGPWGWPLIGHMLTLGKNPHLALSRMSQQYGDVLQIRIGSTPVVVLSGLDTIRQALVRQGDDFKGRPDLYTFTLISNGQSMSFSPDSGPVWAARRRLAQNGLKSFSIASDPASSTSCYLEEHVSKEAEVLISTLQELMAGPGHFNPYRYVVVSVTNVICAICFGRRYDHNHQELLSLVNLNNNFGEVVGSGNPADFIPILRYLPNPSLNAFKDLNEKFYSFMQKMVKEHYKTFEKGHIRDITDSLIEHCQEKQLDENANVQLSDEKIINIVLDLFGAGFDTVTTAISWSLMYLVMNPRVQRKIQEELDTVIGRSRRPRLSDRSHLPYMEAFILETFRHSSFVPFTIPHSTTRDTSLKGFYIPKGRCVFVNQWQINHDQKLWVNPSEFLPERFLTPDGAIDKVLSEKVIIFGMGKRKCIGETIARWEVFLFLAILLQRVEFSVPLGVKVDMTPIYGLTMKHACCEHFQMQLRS
Nature of the series: Drug level assessed as human recombinant CYP1A1-mediated drug metabolism treated with 25 uM [14C]vorapaxar after 120 mins by LC-MS/MS analysis in presence of NADPH. Format: ADME. The conditions noted are these: recombinant enzyme, 2 h.

Series [6] concerns Liver microsome. Nature of the series: Drug level in human liver microsomes treated with 10 to 25 uM vorapaxar after 120 mins by LC-MS/MS analysis in presence of CYP3A4-specific inhibitory antibody. The class given is ADME. To be noted: 2 h.
Series [7] has as its system Liver microsome. In words: Drug level in human liver microsomes treated with 10 to 25 uM vorapaxar after 120 mins by LC-MS/MS analysis in presence of alpha-napthoflavone. The class given is ADME. To be noted: 2 h.
For series [8], the target named is T4, Cytochrome P450 1A1. In words: Activity of human recombinant CYP1A1 assessed as enzyme-mediated drug metabolism treated with 10 uM [14C]vorapaxar after 120 mins by LC-MS/MS analysis in presence of NADPH. Format: ADME. To be noted: 2 h.
Series [9] deals with T5, Cytochrome P450 1A2 (Homo sapiens, UniProt P05177).
T5 sequence (P05177 whole entry): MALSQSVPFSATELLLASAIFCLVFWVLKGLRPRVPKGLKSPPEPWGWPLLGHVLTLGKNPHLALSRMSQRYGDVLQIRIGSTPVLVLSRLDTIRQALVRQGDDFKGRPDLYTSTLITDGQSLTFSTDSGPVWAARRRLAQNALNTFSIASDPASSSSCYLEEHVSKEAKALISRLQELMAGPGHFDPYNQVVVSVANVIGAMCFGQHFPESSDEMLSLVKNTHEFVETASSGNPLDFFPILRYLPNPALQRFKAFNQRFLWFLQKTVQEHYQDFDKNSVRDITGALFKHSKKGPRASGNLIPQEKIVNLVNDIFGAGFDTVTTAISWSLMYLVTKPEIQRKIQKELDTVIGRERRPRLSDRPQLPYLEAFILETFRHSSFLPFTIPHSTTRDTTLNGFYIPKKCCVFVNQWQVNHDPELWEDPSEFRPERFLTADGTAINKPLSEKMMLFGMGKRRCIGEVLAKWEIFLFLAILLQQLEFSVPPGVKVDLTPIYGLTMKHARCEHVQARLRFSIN
In words: Drug level assessed as human recombinant CYP1A2-mediated drug metabolism treated with 25 uM [14C]vorapaxar after 120 mins by LC-MS/MS analysis in presence of NADPH. Format: ADME. The conditions noted are these: recombinant enzyme, 2 h.

The target in series [10] is T6, Cytochrome P450 3A5 (Homo sapiens, UniProt P20815). Nature of the series: Drug level assessed as human recombinant CYP3A5-mediated drug metabolism treated with 25 uM [14C]vorapaxar after 120 mins by LC-MS/MS analysis in presence of NADPH. Format: ADME. The conditions noted are these: recombinant enzyme, 2 h.
Series [11] has as its target T5, Cytochrome P450 1A2. Nature of the series: Activity of human recombinant CYP1A2 assessed as enzyme-mediated drug metabolism treated with 10 uM [14C]vorapaxar after 120 mins by LC-MS/MS analysis in presence of NADPH. Format: ADME. To be noted: 2 h.
Series [12] addresses T3, Cytochrome P450 2C19. In words: Drug level assessed as human recombinant CYP2C19-mediated drug metabolism treated with 25 uM [14C]vorapaxar after 120 mins by LC-MS/MS analysis in presence of NADPH. The conditions noted are these: recombinant enzyme, 2 h. The class given is ADME.
Series [13] has as its system Liver microsome. In words: Drug metabolism in human liver microsomes treated with 10 uM [14C]vorapaxar after 120 mins by LC-MS/MS analysis. The class given is ADME. The conditions noted are these: 2 h.
Series [14] in a line: Drug metabolism in human liver S9 fraction treated with 10 uM [14C]vorapaxar after 120 mins by LC-MS/MS analysis. The class given is ADME, subcellular. To be noted: s9, 2 h.
The test system of series [15] is Liver microsome. Nature of the series: Drug level in human liver microsomes treated with 10 to 25 uM vorapaxar after 120 mins by LC-MS/MS analysis in presence of omeprazole. The class given is ADME. To be noted: 2 h.
A further series has as its target T7, Cytochrome P450 2J2 (Homo sapiens, UniProt P51589).
T7 sequence (P51589 whole entry): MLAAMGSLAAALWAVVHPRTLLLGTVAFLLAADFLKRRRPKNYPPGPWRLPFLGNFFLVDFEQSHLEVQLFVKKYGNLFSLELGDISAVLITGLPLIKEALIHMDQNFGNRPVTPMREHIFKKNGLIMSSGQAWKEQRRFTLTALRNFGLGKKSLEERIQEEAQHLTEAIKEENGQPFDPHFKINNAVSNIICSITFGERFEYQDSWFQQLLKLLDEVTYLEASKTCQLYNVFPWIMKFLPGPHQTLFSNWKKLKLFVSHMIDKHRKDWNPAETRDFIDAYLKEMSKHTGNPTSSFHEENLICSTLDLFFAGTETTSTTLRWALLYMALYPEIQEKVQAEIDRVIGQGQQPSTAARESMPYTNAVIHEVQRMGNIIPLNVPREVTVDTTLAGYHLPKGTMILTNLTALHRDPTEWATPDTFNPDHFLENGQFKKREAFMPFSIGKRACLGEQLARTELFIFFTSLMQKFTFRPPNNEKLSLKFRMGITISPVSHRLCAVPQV
In words: Drug level in human liver microsomes assessed as CYP2J2-mediated drug metabolism at 25 uM after 120 mins by LC-MS/MS analysis. The conditions noted are these: 2 h. The class given is ADME.

Series [16] relates to Liver microsome. In words: Drug level in human liver microsomes treated with 10 to 25 uM vorapaxar after 120 mins by LC-MS/MS analysis in presence of sulfaphenazole. Format: ADME. To be noted: 2 h.
The target in the next series is Cytochrome P450 2C9 (Homo sapiens, UniProt P11712). Nature of the series: Activity of human recombinant CYP2C9 assessed as enzyme-mediated drug metabolism treated with 10 uM [14C]vorapaxar after 120 mins by LC-MS/MS analysis in presence of NADPH. The conditions noted are these: 2 h. Format: ADME.
Series [17] has as its target T6, Cytochrome P450 3A5. In words: Activity of human recombinant CYP3A5 assessed as enzyme-mediated drug metabolism treated with 10 uM [14C]vorapaxar after 120 mins by LC-MS/MS analysis in presence of NADPH. Format: ADME. To be noted: 2 h.

Molecules are shown by their SMILES.

T2 sequence (P08684 whole entry): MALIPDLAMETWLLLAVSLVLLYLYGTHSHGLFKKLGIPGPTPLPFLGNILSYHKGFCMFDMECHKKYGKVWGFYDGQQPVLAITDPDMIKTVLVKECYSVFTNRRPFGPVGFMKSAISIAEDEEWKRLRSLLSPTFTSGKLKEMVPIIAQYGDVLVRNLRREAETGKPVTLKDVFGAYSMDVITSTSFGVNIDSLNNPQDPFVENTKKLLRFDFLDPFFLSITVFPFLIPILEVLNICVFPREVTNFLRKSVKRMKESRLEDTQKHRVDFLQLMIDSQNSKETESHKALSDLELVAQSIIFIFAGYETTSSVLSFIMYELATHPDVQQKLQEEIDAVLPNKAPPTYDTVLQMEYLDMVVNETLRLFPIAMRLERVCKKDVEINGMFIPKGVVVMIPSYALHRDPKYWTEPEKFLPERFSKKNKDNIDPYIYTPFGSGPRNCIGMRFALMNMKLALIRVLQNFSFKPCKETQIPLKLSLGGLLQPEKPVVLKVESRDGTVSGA
T6 sequence (P20815 whole entry): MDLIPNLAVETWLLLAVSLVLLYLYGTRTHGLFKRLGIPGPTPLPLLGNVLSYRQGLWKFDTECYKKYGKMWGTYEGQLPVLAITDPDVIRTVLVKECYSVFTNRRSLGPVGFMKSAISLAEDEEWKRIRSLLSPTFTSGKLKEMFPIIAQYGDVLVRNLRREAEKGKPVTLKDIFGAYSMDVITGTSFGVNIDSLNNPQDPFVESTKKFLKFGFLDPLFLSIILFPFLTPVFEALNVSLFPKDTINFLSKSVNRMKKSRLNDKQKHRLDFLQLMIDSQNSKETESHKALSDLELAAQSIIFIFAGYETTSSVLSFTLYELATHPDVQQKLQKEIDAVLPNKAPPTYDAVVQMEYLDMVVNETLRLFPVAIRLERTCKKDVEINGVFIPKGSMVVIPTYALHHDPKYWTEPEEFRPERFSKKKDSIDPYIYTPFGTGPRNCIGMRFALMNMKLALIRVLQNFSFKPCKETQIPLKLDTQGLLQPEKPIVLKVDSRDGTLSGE
T3 sequence (P33261 whole entry): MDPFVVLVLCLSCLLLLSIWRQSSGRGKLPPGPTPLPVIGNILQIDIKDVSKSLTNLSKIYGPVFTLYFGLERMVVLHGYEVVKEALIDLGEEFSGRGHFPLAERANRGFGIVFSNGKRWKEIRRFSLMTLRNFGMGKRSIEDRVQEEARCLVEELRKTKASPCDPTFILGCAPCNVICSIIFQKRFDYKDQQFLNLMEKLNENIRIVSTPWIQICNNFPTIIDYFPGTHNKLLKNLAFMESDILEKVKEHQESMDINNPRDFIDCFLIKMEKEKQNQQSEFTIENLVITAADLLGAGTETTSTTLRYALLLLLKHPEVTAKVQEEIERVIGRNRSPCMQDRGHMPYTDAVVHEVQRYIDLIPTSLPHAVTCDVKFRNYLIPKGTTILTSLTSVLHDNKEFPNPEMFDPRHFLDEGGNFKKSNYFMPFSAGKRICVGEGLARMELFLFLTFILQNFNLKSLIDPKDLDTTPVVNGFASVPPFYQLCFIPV
Sequence of Cytochrome P450 2C9 (P11712 whole entry): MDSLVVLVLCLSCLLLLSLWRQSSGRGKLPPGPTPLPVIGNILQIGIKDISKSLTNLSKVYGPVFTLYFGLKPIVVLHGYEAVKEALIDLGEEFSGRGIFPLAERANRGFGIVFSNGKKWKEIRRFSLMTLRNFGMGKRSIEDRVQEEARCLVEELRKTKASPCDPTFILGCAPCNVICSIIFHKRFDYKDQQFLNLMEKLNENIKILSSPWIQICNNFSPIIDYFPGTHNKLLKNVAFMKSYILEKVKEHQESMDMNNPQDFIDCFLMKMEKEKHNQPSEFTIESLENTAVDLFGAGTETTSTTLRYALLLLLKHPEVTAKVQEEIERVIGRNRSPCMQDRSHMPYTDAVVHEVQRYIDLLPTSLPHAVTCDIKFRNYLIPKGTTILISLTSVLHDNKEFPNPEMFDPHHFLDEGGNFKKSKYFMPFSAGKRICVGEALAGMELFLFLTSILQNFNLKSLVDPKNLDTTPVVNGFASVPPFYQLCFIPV

Consider `C[C@H]1OC(=O)[C@@H]2C[C@@H]3C[C@H](N)CC[C@H]3[C@H](/C=C/c3ccc(-c4cccc(F)c4)cn3)[C@H]12`, for which the Drug metabolism entry at Cytochrome P450 4F3, at Cytochrome P450 3A4 [2], with Liver microsome [3], at Cytochrome P450 1A1 [5], in the series with Liver microsome [6] and in the series on Liver microsome [7] was “metabolite_detected” each time. Besides, the Drug metabolism result on Cytochrome P450 1A2 [9], on Cytochrome P450 3A5 [10], on Cytochrome P450 2C19 [12], with Liver microsome [15], at Cytochrome P450 2J2 and with Liver microsome [16] was “metabolite_detected” in each case. Also, the Compound recovery at Cytochrome P450 3A4 [1] is 22.1%; at Cytochrome P450 2C19 [4], 5.91%; on Cytochrome P450 1A1 [8] it was 1.96%; on Cytochrome P450 1A2 [11], 0.23%; in the series with Liver microsome [13], 5.12%; in series [14], 3.42%. In addition, the figures for the Compound recovery result at Cytochrome P450 2C9 and at Cytochrome P450 3A5 [17] were “below level of quantification” and 0.15%, respectively.
